Measured values: patent US20170291905A1, “ARGININE […] INHIBITORS AND USES THEREOF” (Epizyme, Inc., priority 2014, published 2017)
pIC50: −log10 of the molar value. Structures can show the parent of a compound that is named as a salt.

Each compound was assayed against full-length human PRMT8 isoform 1 (Homo sapiens, UniProt Q9NR22) (assay: PRMT8 biochemical assay (3H-SAM Flashplate, histone H4 31-45 peptide)). Details: 1.5 nM PRMT8, 30 min preincubation, 150 nM peptide.
From the text: S-adenosylmethionine (SAM), S-adenosylhomocysteine (SAH), bicine, Tween20, dimethylsulfoxide (DMSO), bovine skin gelatin (BSG), isopropyl-β-D-thiogalactopyranoside (IPTG), and Tris(2-carboxyethyl)phosphine hydrochloride solution (TCEP) were purchased from Sigma-Aldrich at the highest level of purity possible. ^3H-SAM was purchase from American Radiolabeled Chemicals with a specific activity of 80 Ci/mmol. 384-well streptavidin Flashplates were purchased from PerkinElmer.
Peptide representative of human histone H4 residues 31-45 was synthesized with an N-terminal linker-affinity tag motif and a C-terminal amide cap by 21st Century Biochemicals. The peptide was purified by high-performance liquid chromatography (HPLC) to greater than 95% purity and confirmed by liquid chromatography mass spectrometry (LC-MS). The sequence was Biot-Ahx-[…]-amide (SEQ ID NO.:8).
The resulting construct encodes an N-terminal GST tag and a thrombin cleavage sequence
E. coli (BL21(DE3) Gold, Stratagene) made competent by the CaCl2 method were transformed with the PRMT8 construct and ampicillin selection. Protein over-expression was accomplished by growing the PRMT8 expressing E. coli clone and inducing expression with 0.3 mM IPTG at 16° C. The culture was grown for 12 hours, harvested by centrifugation, and stored at −80° C. for purification.
GST-tagged PRMT8 was eluted with 50 mM Tris, 2 mM glutathione, pH 7.8. Pooled fractions were cleaved by thrombin (10U) and dialysed in buffer A. GST was removed by reloading the cleaved protein sample onto glutathione sepharose column and PRMT8 was collected in the flow-through fractions. PRMT8 was purified further by ceramic hydroxyapatite chromatography. The column was washed with 50 mM phosphate buffer, 100 mM NaCl, 5% glycerol, 5 mM […], pH 7.8 and PRMT8 was eluted by 100 mM phosphate in the same buffer. Protein was concentrated and buffer was exchanged to 50 mM Tris, 300 mM NaCl, 10% glycerol, 5 mM β-mercaptoethanol, pH 7.8 by ultrafiltration. The purity of recovered protein was 89%.
General Procedure for PRMT8 Enzyme Assays on Peptide Substrates.
The assays were all performed in a buffer consisting of 20 mM Bicine (pH=7.6), 1 mM TCEP, 0.005% BSG, and 0.002% Tween 20, prepared on the day of use. Compounds in 100% DMSO (1 ul) were spotted into a polypropylene 384-well V-bottom plates (Greiner) using a Platemate Plus outfitted with a 384-channel head (Thermo Scientific). DMSO (1 ul) was added to Columns 11, 12, 23, 24, rows A-H for the maximum signal control and 1 ul of SAH, a known product and inhibitor of PRMT8, was added to columns 11, 12, 23, 24, rows I-P for the minimum signal control. A cocktail (40 ul) containing the PRMT8 enzyme was added by Multidrop Combi (Thermo-Fisher). The compounds were allowed to incubate with PRMT8 for 30 min at room temperature, then a cocktail (10 ul) containing ^3H-SAM and peptide was added to initiate the reaction (final volume=51 ul). The final concentrations of the components were as follows: PRMT8 was 1.5 nM, ^3H-SAM was 50 nM, non-radiolabeled SAM was 550 nM, peptide was 150 nM, SAH in the minimum signal control wells was 1 mM, and the DMSO concentration was 2%. The assays were stopped by the addition of non-radiolabeled SAM (10 ul) to a final concentration of 400 uM, which dilutes the ^3H-SAM to a level where its incorporation into the peptide substrate is no longer detectable. 50 ul of the reaction in the 384-well polypropylene plate was then transferred to a 384-well Flashplate and the biotinylated peptides were allowed to bind to the streptavidin surface for at least 1 hour before being washed once with 0.1% Tween20 in a Biotek ELx405 plate washer. The plates were then read in a PerkinElmer TopCount plate reader to measure the quantity of ^3H-labeled peptide bound to the Flashplate surface, measured as disintegrations per minute (dpm) or alternatively, referred to as counts per minute (cpm). […]

Chain of full-length human PRMT8 isoform 1 (Q9NR22 whole entry, canonical isoform): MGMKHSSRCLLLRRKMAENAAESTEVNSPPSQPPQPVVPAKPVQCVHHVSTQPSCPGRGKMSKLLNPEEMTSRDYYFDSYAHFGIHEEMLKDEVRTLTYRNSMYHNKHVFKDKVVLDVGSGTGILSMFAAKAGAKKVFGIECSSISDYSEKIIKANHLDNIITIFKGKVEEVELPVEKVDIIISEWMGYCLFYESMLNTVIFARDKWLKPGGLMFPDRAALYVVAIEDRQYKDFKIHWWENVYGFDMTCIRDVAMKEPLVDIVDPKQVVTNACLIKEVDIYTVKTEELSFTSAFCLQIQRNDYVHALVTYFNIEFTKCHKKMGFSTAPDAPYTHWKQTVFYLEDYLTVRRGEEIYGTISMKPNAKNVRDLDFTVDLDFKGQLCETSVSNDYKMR

First: CNCCN(C)Cc1scnc1[C@H]1CC[C@]2(CC1)CC(C)(C)CO2 [compound 84]
Second: CNCCN(C)Cc1sc(C)nc1[C@H]1CC[C@]2(CC1)CC(C)(C)CO2 [compound 100]
The pIC50 of the first is 0.26 log units higher: 7.62 for the first, 7.36 for the second. The first is the more potent here.

Compared with `CNCCN(C)Cc1nn[nH]c1[C@H]1CC[C@]2(CC1)CC(C)(C)CO2` [compound 89], `CNCCN(C)Cc1n[nH]cc1[C@H]1CC[C@@]2(CC1)CC(C)(C)CO2` [compound 115] is 0.93 log units higher in pIC50: 6.86 for the first, 7.79 for the second. The second is the more potent here.

First: CNCCN(C)Cc1nncn1[C@H]1CC[C@]2(CC1)CC(C)(C)CO2 [compound 90]
Second: CNCCN(C)Cc1nccn1[C@H]1CC[C@]2(CC1)CC(C)(C)CO2 [compound 91]
The pIC50 of the first is lower: < 5.00 for the first, 5.93 for the second.

First: CNCCN(C)Cc1nnc(C)n1[C@H]1CC[C@]2(CC1)CC(C)(C)CO2 [compound 93]
Second: CNCCN(C)Cc1c(Cl)ncn1[C@H]1CC[C@]2(CC1)CC(C)(C)CO2 [compound 97]
The pIC50 of the first is lower: < 5.00 for the first, 6.28 for the second.

Going from `CNCCN(C)Cc1cncn1[C@H]1CC[C@]2(CC1)CC(C)(C)CO2` [compound 98] to `CNCCN(C)Cc1nn(C)cc1[C@H]1CC[C@]2(CC1)CC(C)(C)CO2` [compound 103], the pIC50 rises from 5.43 to 7.37 (1.94 log units). The second is the more potent here.

`CNCCN(C)Cc1nc(C)sc1[C@H]1CC[C@]2(CC1)CC(C)(C)CO2` [compound 99] and `CNCCN(C)Cc1c(C)noc1[C@H]1CC[C@@]2(CC1)CC(C)(C)CO2` [compound 113] are within 0.2 log units of each other in pIC50: 7.31 for the first, 7.29 for the second.

Going from `CN(CCN)Cc1nn(C)cc1[C@H]1CC[C@]2(CC1)CC(C)(C)CO2` [compound 102] to `CN(CCN)Cc1c[nH]nc1[C@H]1CC[C@@]2(CC1)CC(C)(C)CO2` [compound 105], the pIC50 rises from 7.41 to 8.04 (0.63 log units).

First: CN(CCN)Cc1c[nH]nc1[C@H]1CC[C@]2(CC1)CC(C)(C)CO2 [compound 106]
Second: CNCCN(C)Cc1n[nH]cc1[C@H]1CC[C@]2(CC1)CC(C)(C)CO2 [compound 116]
The pIC50 of the first is 0.33 log units lower: 7.17 for the first, 7.50 for the second.

Going from `CNCCN(C)Cc1c(C)noc1[C@H]1CC[C@]2(CC1)CC(C)(C)CO2` [compound 114] to `CNCCN(C)Cc1nocc1[C@H]1CC[C@@]2(CC1)CC(C)(C)CO2` [compound 117], the pIC50 rises from 7.17 to 7.39 (0.22 log units). The second is the more potent here.

Compared with `CNCCN(C)Cc1nocc1[C@H]1CC[C@]2(CC1)CC(C)(C)CO2` [compound 118], `CNCCN(C)Cc1c[nH]nc1[C@H]1CC[C@@]2(CC1)COC(C)(C)C2` [compound 126, N1-((3-((5r,8r)-3,3-dimethyl-2-oxaspiro[4.5]decan-8-yl)-1H-pyrazol-4-yl)methyl)-N1,N2-dimethylethane-1,2-diamine] is 1.35 log units higher in pIC50: 6.32 for the first, 7.67 for the second.

First: CCOCC1(COCC)CCC(c2n[nH]cc2CN(C)CCN(C)C)CC1 [compound 121]
Second: CCOCC1(COCC)CCC(c2n[nH]cc2CN(C)CCN)CC1 [compound 123]
The pIC50 of the first is 0.78 log units lower: 7.24 for the first, 8.02 for the second. The second is the more potent here.

`CCOCC1(COCC)CCC(c2nn(C)cc2CN(C)CCNC)CC1` [compound 122] and `CCOCC1(COCC)CCC(c2nn(C)cc2CN(C)CCN)CC1` [compound 124] are within 0.2 log units of each other in pIC50: 7.55 for the first, 7.59 for the second.

`CNCCN(C)Cc1c[nH]nc1C1CCC2(CC1)CC(C)(C)OC2=O` (stereo not drawn) [compound 125] and `CNCCN(C)Cc1c[nH]nc1[C@H]1CC[C@]2(CCCCO2)CC1` [compound 127, methyl([2-[methyl([3-[(6s,9r)-1-oxaspiro[5.5]undecan-9-yl]-1H-pyrazol-4-yl]methyl)amino]ethyl])amine bistrifluoroacetic acid salt] are within 0.2 log units of each other in pIC50: 7.80 for the first, 7.79 for the second.

Same assay, conditions: […] PRMT8, 30 min preincubation, 150 nM peptide

`CNCCN(C)Cc1nn(C)nc1C1CCC2(CC1)CC(C)(C)CO2` (stereo not drawn) [compound 86] showed a pIC50 of 7.30.
